US20210236442A1, “METHODS FOR DELAYING OCCURRENCE OF NEW-ONSET TYPE 2 DIABETES AND FOR SLOWING PROGRESSION OF AND TREATING TYPE 2 DIABETES” (Dalcor Pharma UK Ltd., Leatherhead, Zug Branch, priority 2018, published 2021)

How the values were obtained:
[1] = system: patients enrolled in the dal-OUTCOMES trial; test: Cox proportional hazards regression of diabetes for association with cardiovascular events per rs1967309 genotype and treatment arm (dal-OUTCOMES); type: in vivo, human; settings: for Event (cardiovascular events) / HR (diabetes, cardiovascular events) / β diabetes (cardiovascular events): dalcetrapib arm
From the text: Inclusion Criteria: Patients 45 years of age or older who provided written informed consent were eligible to participate if they had been hospitalized for an acute coronary syndrome characterized by elevated cardiac biomarkers, with symptoms of acute myocardial ischemia, ischemic electrocardiographic abnormalities that were new or presumed to be new, or loss of viable myocardium on imaging. Patients without elevated cardiac biomarkers were eligible to participate if symptoms of acute myocardial ischemia were accompanied by electrocardiographic changes that were new or presumed to be new and by additional evidence of obstructive coronary disease. […] However, no specific statin agent or dose was specified, and patients were not excluded if their LDL cholesterol level remained above 100 mg per deciliter. There were no exclusions on the basis of patients' HDL cholesterol level. […] The patients began a single-blind placebo-based run-in period of approximately 4 to 6 weeks to allow for patients to stabilize and for completion of any planned revascularization procedures. At the end of the run-in period, patients in stable condition were randomized in a 1:1 ratio to 600 mg of dalcetrapib or placebo on top of evidence-based medical care for acute cardiovascular syndrome (“ACS”). The descriptive statistics and analyses were performed using SAS 9.4 software. […]

[2] = system: patients of the dal-OUTCOMES trial; test: GLM of dalcetrapib treatment arm for whole-blood HbA1c at 6, 12 and 24 months; type: in vivo, human
Description: The effect of dalcetrapib on whole-blood HbA1c levels irrespective of genotype and the impact of dalcetrapib on risk of new onset diabetes were retrospectively assessed in patients of the dal-OUTCOMES trial. The descriptive statistics and analyses were performed using SAS 9.4 software. Diabetes at baseline was defined based on at least one of the following patient criteria: (1) diagnosis of diabetics at baseline in the dal-OUTCOMES trial; (2) whole-blood HbA1c level>=6.5% at baseline; (3) fasting glucose level>=7.0 mmol/L at baseline; and (4) use of diabetes medication at or before baseline. GLM results of the dalcetrapib treatment arm for whole-blood HbA1c at 6,12, and 24 months (“M06”, “M12” and “M24”, respectively) were obtained.

[3] = rs1967309 AA, controlling for age and sex
[4] = rs1967309 AG, controlling for age and sex
[5] = rs1967309 GG, controlling for age and sex

`CCC(CC)CC1(C(=O)Nc2ccccc2SC(=O)C(C)C)CCCCC1` [dalcetrapib] was tested, and the “effect of dalcetrapib on cardiovascular events” value ([1]; AA patients with diabetes) was “cardiovascular protective effect”, the “Event (cardiovascular events)” value ([1]; rs1967309 AA, Table 6) was 37 and the “Event (cardiovascular events)” value ([1]; rs1967309 AA, Table 7) was 37. The “HR (diabetes, cardiovascular events)” value [1, 3] was 1.6850, the “β diabetes (cardiovascular events)” value [1, 3] was 0.5218 and the “HR (diabetes, cardiovascular events)” value ([1]; rs1967309 AA, no covariate) was 1.4330. The “β diabetes (cardiovascular events)” value ([1]; rs1967309 AA, no covariate) was 0.3597, the “Event (cardiovascular events)” value ([1]; rs1967309 AG, Table 6) was 176 and the “Event (cardiovascular events)” value ([1]; rs1967309 AG, Table 7) was 176. The “HR (diabetes, cardiovascular events)” value [1, 4] was 2.2217, the “β diabetes (cardiovascular events)” value [1, 4] was 0.7983 and the “HR (diabetes, cardiovascular events)” value ([1]; rs1967309 AG, no covariate) was 2.3398. The “β diabetes (cardiovascular events)” value ([1]; rs1967309 AG, no covariate) was 0.8501, the “Event (cardiovascular events)” value ([1]; rs1967309 GG, Table 6) was 176 and the “Event (cardiovascular events)” value ([1]; rs1967309 GG, Table 7) was 176. The “HR (diabetes, cardiovascular events)” value [1, 5] was 1.6913, the “β diabetes (cardiovascular events)” value [1, 5] was 0.5255 and the “HR (diabetes, cardiovascular events)” value ([1]; rs1967309 GG, no covariate) was 1.7772. The “β diabetes (cardiovascular events)” value ([1]; rs1967309 GG, no covariate) was 0.5750, the “β dalcetrapib, Ln(HbA1c)” value ([2]; All, HBA1C_M06, Table 12, adjustment not stated) was −0.0137 and the “β dalcetrapib, Ln(HbA1c)” value ([2]; All, HBA1C_M06, first block, adjusted for baseline HbA1c) was −0.0143. The “β dalcetrapib, Ln(HbA1c)” value ([2]; All, HBA1C_M12, Table 12, adjustment not stated) was −0.0152, the “β dalcetrapib, Ln(HbA1c)” value ([2]; All, HBA1C_M12, first block, adjusted for baseline HbA1c) was −0.0160 and the “β dalcetrapib, Ln(HbA1c)” value ([2]; All, HBA1C_M24, Table 12, adjustment not stated) was −0.0170. For the same molecule, the “β dalcetrapib, Ln(HbA1c)” value ([2]; All, HBA1C_M24, first block, adjusted for baseline HbA1c) was −0.0176, the “association of dalcetrapib treatment arm with whole-blood HbA1c levels” value ([2]; M06, M12, M24, all patients combined and each rs1967309 genotype, with and without age and sex) was “associated with decrease in whole-blood HbA1c levels” and the “β dalcetrapib, Ln(HbA1c)” value ([2]; genotype = AA, HBA1C_M06, Table 12, adjustment not stated) was −0.0192. For the same molecule, the “β dalcetrapib, Ln(HbA1c)” value ([2]; genotype = AA, HBA1C_M06, first block, adjusted for baseline HbA1c) was −0.0196, the “β dalcetrapib, Ln(HbA1c)” value ([2]; genotype = AA, HBA1C_M12, Table 12, adjustment not stated) was −0.0112 and the “β dalcetrapib, Ln(HbA1c)” value ([2]; genotype = AA, HBA1C_M12, first block, adjusted for baseline HbA1c) was −0.0116. For the same molecule, the “β dalcetrapib, Ln(HbA1c)” value ([2]; genotype = AA, HBA1C_M24, Table 12, adjustment not stated) was −0.0172, the “β dalcetrapib, Ln(HbA1c)” value ([2]; genotype = AA, HBA1C_M24, first block, adjusted for baseline HbA1c) was −0.0171 and the “β dalcetrapib, Ln(HbA1c)” value ([2]; genotype = AG, HBA1C_M06, Table 12, adjustment not stated) was −0.0113. The “β dalcetrapib, Ln(HbA1c)” value ([2]; genotype = AG, HBA1C_M06, first block, adjusted for baseline HbA1c) was −0.0123, the “β dalcetrapib, Ln(HbA1c)” value ([2]; genotype = AG, HBA1C_M12, Table 12, adjustment not stated) was −0.0143 and the “β dalcetrapib, Ln(HbA1c)” value ([2]; genotype = AG, HBA1C_M12, first block, adjusted for baseline HbA1c) was −0.0156. For the same molecule, the “β dalcetrapib, Ln(HbA1c)” value ([2]; genotype = AG, HBA1C_M24, Table 12, adjustment not stated) was −0.0139, the “β dalcetrapib, Ln(HbA1c)” value ([2]; genotype = AG, HBA1C_M24, first block, adjusted for baseline HbA1c) was −0.0153 and the “β dalcetrapib, Ln(HbA1c)” value ([2]; genotype = GG, HBA1C_M06, Table 12, adjustment not stated) was −0.0145. The “β dalcetrapib, Ln(HbA1c)” value ([2]; genotype = GG, HBA1C_M06, first block, adjusted for baseline HbA1c) was −0.0145, the “β dalcetrapib, Ln(HbA1c)” value ([2]; genotype = GG, HBA1C_M12, Table 12, adjustment not stated) was −0.0185 and the “β dalcetrapib, Ln(HbA1c)” value ([2]; genotype = GG, HBA1C_M12, first block, adjusted for baseline HbA1c) was −0.0186. For the same molecule, the “β dalcetrapib, Ln(HbA1c)” value ([2]; genotype = GG, HBA1C_M24, Table 12, adjustment not stated) was −0.0214, the “β dalcetrapib, Ln(HbA1c)” value ([2]; genotype = GG, HBA1C_M24, first block, adjusted for baseline HbA1c) was −0.0210 and the “β dalcetrapib, Ln(HbA1c)” value ([2]; genotype_group = AA + AG, HBA1C_M06, Table 12, adjustment not stated) was −0.0133. For the same molecule, the “β dalcetrapib, Ln(HbA1c)” value ([2]; genotype_group = AA + AG, HBA1C_M06, first block, adjusted for baseline HbA1c) was −0.0141, the “β dalcetrapib, Ln(HbA1c)” value ([2]; genotype_group = AA + AG, HBA1C_M12, Table 12, adjustment not stated) was −0.0135 and the “β dalcetrapib, Ln(HbA1c)” value ([2]; genotype_group = AA + AG, HBA1C_M12, first block, adjusted for baseline HbA1c) was −0.0146. The “β dalcetrapib, Ln(HbA1c)” value ([2]; genotype_group = AA + AG, HBA1C_M24, Table 12, adjustment not stated) was −0.0147, the “β dalcetrapib, Ln(HbA1c)” value ([2]; genotype_group = AA + AG, HBA1C_M24, first block, adjusted for baseline HbA1c) was −0.0157 and the “β dalcetrapib, Ln(HbA1c)” value ([2]; genotype_group = GG, HBA1C_M06, Table 12, adjustment not stated) was −0.0145. The “β dalcetrapib, Ln(HbA1c)” value ([2]; genotype_group = GG, HBA1C_M06, first block, adjusted for baseline HbA1c) was −0.0145, the “β dalcetrapib, Ln(HbA1c)” value ([2]; genotype_group = GG, HBA1C_M12, Table 12, adjustment not stated) was −0.0185 and the “β dalcetrapib, Ln(HbA1c)” value ([2]; genotype_group = GG, HBA1C_M12, first block, adjusted for baseline HbA1c) was −0.0186. For the same molecule, the “β dalcetrapib, Ln(HbA1c)” value ([2]; genotype_group = GG, HBA1C_M24, Table 12, adjustment not stated) was −0.0214, the “β dalcetrapib, Ln(HbA1c)” value ([2]; genotype_group = GG, HBA1C_M24, first block, adjusted for baseline HbA1c) was −0.0210 and the “mean ln(HbA1c) in the dalcetrapib treatment arm” value ([2]; versus placebo arm, adjusting for baseline HbA1c) was “lower than in the placebo arm”.
